Assay results as given in ChEMBL document CHEMBL5500378, “Discovery of 4-benzylpiperazinequinoline BChE inhibitor that suppresses neuroinflammation for the treatment of Alzheimer's disease” (Eur J Med Chem, 2024).
Active and inactive are the calls of the source. The calls are words filed in the database; no cut-off is given here.

What was measured:
Cholinesterase [1] = target: Cholinesterase (Equus caballus, UniProt P81908); test: Inhibition of equine serum BChE using BTC as substrate incubated for 2 mins by Ellman's method; assay type: cell-free
Cholinesterase [2] = target: Cholinesterase (Homo sapiens, UniProt P06276); test: Inhibition of human BChE using BTC as substrate incubated for 2 mins by Ellman's method
[3] = Metabolic stability in human liver microsomes assessed as half life at 2 uM incubated for 60 mins by LC-MS/MS analysis; assay type: ADME, Microsome
[4] = Tmax in Sprague-Dawley rat at 10 mg/kg, IG measured for 2880 mins by LC-MS/MS analysis; assay type: ADME, organism-based; details: in vivo, po
[5] = Cmax in Sprague-Dawley rat at 10 mg/kg, IG measured for 2880 mins by LC-MS/MS analysis; assay type: ADME, organism-based; details: in vivo, po
[6] = AUC (0 to t) in Sprague-Dawley rat at 10 mg/kg, IG measured for 2880 mins by LC-MS/MS analysis; assay type: ADME, organism-based; details: in vivo, po
[7] = AUC (0 to infinity) in Sprague-Dawley rat at 10 mg/kg, IG measured for 2880 mins by LC-MS/MS analysis; assay type: ADME, organism-based; details: in vivo, po
[8] = MRT (infinity) in Sprague-Dawley rat at 10 mg/kg, IG measured for 2880 mins by LC-MS/MS analysis; assay type: ADME, organism-based; details: in vivo, po
[9] = Oral bioavailability in Sprague-Dawley rat at 10 mg/kg, IG or 10 mg/kg, iv measured for 2880 mins by LC-MS/MS analysis; assay type: ADME, organism-based; details: in vivo
[10] = Half life in Sprague-Dawley rat at 10 mg/kg, iv measured for 2880 mins by LC-MS/MS analysis; assay type: ADME, organism-based; details: in vivo, 48 h
[11] = Tmax in Sprague-Dawley rat at 10 mg/kg, iv measured for 2880 mins by LC-MS/MS analysis; assay type: ADME, organism-based; details: in vivo
[12] = Cmax in Sprague-Dawley rat at 10 mg/kg, iv measured for 2880 mins by LC-MS/MS analysis; assay type: ADME, organism-based; details: in vivo
[13] = AUC (0 to t) in Sprague-Dawley rat at 10 mg/kg, iv measured for 2880 mins by LC-MS/MS analysis; assay type: ADME, organism-based; details: in vivo
[14] = MRT (infinity) in Sprague-Dawley rat at 10 mg/kg, iv measured for 2880 mins by LC-MS/MS analysis; assay type: ADME, organism-based; details: in vivo, 48 h
[15] = Half life in plasma of ICR mouse at 10 mg/kg, IG measured at 10 to 240 mins by LC-MS/MS analysis; assay type: ADME, organism-based; details: in vivo, po, time 10-240 min
[16] = Tmax in plasma of ICR mouse at 10 mg/kg, IG measured at 10 to 240 mins by LC-MS/MS analysis; assay type: ADME, organism-based; details: in vivo, po, time 10-240 min
[17] = Cmax in plasma of ICR mouse at 10 mg/kg, IG measured at 10 to 240 mins by LC-MS/MS analysis; assay type: ADME, organism-based; details: in vivo, po, time 10-240 min
[18] = AUC (0 to t) in plasma of ICR mouse at 10 mg/kg, IG measured at 10 to 240 mins by LC-MS/MS analysis; assay type: ADME, organism-based; details: in vivo, po, time 10-240 min
[19] = Tmax in brain of ICR mouse at 10 mg/kg, IG measured at 10 to 240 mins by LC-MS/MS analysis; assay type: ADME, organism-based; details: po, time 10-240 min
[20] = Cmax in brain of ICR mouse at 10 mg/kg, IG measured at 10 to 240 mins by LC-MS/MS analysis; assay type: ADME, organism-based; details: po, time 10-240 min
PC-12 [21] = test: Neuroprotective activity against H2O2-induced neuronal damage in rat PC12 cells assessed as increase in cell viability pretreated for 1 hr followed by H2O2 addition measured after 24 hrs by MTT assay; assay type: functional, cell-based; details: dose <= 20.0 µM, time 25.0 hrs
BV-2 [22] = test: Anti-inflammatory activity against mouse BV-2 cells assessed as decrease in LPS-induced IFN-gamma level at 2 to 6 uM preincubated for 1 hr followed by LPS addition and incubated overnight by ELISA; assay type: functional, cell-based; details: dose 2-6 µM
PC-12 [23] = test: Neuroprotective activity against H2O2-induced neuronal damage in rat PC12 cells assessed as increase in cell viability at 20 uM pretreated for 1 hr followed by H2O2 addition measured after 24 hrs by MTT assay relative to control; assay type: functional; details: time 25 hrs
BV-2 [24] = test: Inhibition of ROS production in Amyloid beta(1 to 42)-induced neuronal damage in mouse BV-2 cells assessed as decrease in green fluorescence intensity at 5 uM by microscopic analysis; assay type: functional, cell-based
BV-2 [25] = test: Inhibition of ROS production in LPS-induced mouse BV-2 cells assessed as decrease in green fluorescence intensity at 2.5 to 10 uM pretreated for 1 hr followed by LPS addition and incubated overnight by DCFH-DA staining based analysis; assay type: functional, cell-based; details: dose 2.5-10 µM
BV-2 [26] = test: Anti-inflammatory activity against mouse BV-2 cells assessed as decrease in LPS-induced TNF-alpha level at 5 uM preincubated for 1 hr followed by LPS addition and incubated overnight by immunofluorescence based analysis; assay type: functional, cell-based
BV-2 [27] = test: Anti-inflammatory activity against mouse BV-2 cells assessed as decrease in LPS-induced IL-1beta level at 5 uM preincubated for 1 hr followed by LPS addition and incubated overnight by immunofluorescence based analysis; assay type: functional, cell-based
[28] = Toxicity in ICR mouse assessed as abnormal behaviour administered orally; details: in vivo, po
[29] = Toxicity in ICR mouse assessed as body weight change administered orally for 14 days consecutively; details: in vivo, po, 336 h, time 14 day
[30] = Toxicity in ICR mouse model of Amyloid beta(1 to 42)-induced cognitive impairment assessed as body weight change at 10 mg/kg, IG for 12 days; assay type: organism-based; details: in vivo, po, 288 h, time 12 day
[31] = Toxicity in ICR mouse model of Amyloid beta(1 to 42)-induced cognitive impairment assessed as change in body appearance at 10 mg/kg, IG for 12 days; assay type: organism-based; details: in vivo, po, 288 h, time 12 day
Mus musculus [32] = test: Improvement of cognition in ICR mouse model of Amyloid beta(1 to 42)-induced cognitive impairment at 10 mg/kg, IG for 12 days by Moris water maze test; assay type: functional, organism-based; details: time 12.0 day
Mus musculus [33] = test: Improvement of learning ability in ICR mouse model of Amyloid beta(1 to 42)-induced cognitive impairment at 10 mg/kg, IG for 12 days by Moris water maze test; assay type: functional, organism-based; details: time 12.0 day
Mus musculus [34] = test: Neuroprotective activity in ICR mouse model of Amyloid beta(1 to 42)-induced cognitive impairment assessed as decrease in Amyloid beta expression in brain at 10 mg/kg, IG for 12 days by ELISA; assay type: functional, organism-based; details: time 12.0 day
Mus musculus [35] = test: Anti-inflammatory activity in ICR mouse model assessed as shorter platform latency at 10 mg/kg, IG pretreated for 10 days followed by LPS treatment for 4 days by Moris water maze test; assay type: functional, organism-based; details: time 14.0 day
Mus musculus [36] = test: Anti-inflammatory activity in ICR mouse model assessed as reduction in brain TNF-alpha level at 10 mg/kg, IG pretreated for 10 days followed by LPS treatment for 4 days by ELISA; assay type: functional, organism-based; details: time 14.0 day
Mus musculus [37] = test: Anti-inflammatory activity in ICR mouse model assessed as reduction in brain IL-1beta level at 10 mg/kg, IG pretreated for 10 days followed by LPS treatment for 4 days by ELISA; assay type: functional, organism-based; details: time 14.0 day

Chain of Cholinesterase (Homo sapiens, UniProt P06276) (P06276 whole entry): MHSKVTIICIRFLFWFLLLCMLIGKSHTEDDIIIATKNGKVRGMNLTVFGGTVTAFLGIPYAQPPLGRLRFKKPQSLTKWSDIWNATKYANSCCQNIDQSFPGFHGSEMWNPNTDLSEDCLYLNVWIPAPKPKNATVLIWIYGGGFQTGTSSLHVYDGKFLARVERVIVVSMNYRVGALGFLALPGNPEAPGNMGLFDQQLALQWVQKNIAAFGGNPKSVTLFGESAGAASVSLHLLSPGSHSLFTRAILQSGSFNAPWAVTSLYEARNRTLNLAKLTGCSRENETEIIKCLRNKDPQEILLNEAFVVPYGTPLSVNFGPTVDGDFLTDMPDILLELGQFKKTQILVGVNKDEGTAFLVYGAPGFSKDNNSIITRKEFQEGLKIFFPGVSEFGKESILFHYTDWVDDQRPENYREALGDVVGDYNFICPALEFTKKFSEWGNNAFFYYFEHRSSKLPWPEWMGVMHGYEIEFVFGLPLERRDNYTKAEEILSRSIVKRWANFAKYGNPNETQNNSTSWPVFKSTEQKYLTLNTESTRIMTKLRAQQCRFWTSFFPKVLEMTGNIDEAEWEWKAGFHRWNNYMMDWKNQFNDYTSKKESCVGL
Chain of Cholinesterase (Equus caballus, UniProt P81908) (P81908 whole entry): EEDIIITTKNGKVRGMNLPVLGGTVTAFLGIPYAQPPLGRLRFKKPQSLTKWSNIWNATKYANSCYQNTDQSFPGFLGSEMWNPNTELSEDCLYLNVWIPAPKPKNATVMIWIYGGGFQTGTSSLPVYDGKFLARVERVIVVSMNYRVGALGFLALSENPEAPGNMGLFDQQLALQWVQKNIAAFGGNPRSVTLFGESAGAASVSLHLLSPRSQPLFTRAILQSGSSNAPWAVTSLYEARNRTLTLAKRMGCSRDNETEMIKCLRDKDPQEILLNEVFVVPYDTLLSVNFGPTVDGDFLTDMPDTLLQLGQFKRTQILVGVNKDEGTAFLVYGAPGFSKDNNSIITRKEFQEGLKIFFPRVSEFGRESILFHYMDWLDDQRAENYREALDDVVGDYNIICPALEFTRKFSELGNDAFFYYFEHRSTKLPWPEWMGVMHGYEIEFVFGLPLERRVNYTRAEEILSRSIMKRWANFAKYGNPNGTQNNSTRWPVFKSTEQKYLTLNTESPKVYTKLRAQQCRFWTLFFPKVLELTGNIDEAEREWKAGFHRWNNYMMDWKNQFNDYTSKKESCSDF

CCCc1ccc(C(=O)Nc2cnc3ccccc3c2N2CCN(Cc3ccccc3)CC2)cc1
IC50 (Cholinesterase [1]): 60 nM
IC50 (Cholinesterase [2]): 160 nM
half-life at 2 µM [3]: 45.7 min
Tmax [4]: 60 min
Cmax [5]: 1380 ng/mL
AUC(0-t) at 48 h [6]: 5650 ng·h/mL
AUC(0-inf) [7]: 5650 ng·h/mL
MRT inf [8]: 1070 min
bioavailability [9]: 92.3%
t1/2 [10]: 302.82 min
Tmax [11]: 1 min
Cmax [12]: 7120 ng/mL
AUC(0-t) at 48 h [13]: 6070 ng·h/mL
MRT [14]: 987 min
t1/2 [15]: 65.38 min
Tmax [16]: 18 min
Cmax [17]: 238.2 ng/mL
AUCt [18]: 20051.76 ng·h/mL
Tmax [19]: 22 min
Cmax [20]: 554 ng/mL
Activity (PC-12 [21]): Dose-Dependent Effect
Activity (BV-2 [22]): Active
Activity (PC-12 [23]): >80%
inhibition (BV-2 [24]): Active
inhibition (BV-2 [25]): Active
Activity (BV-2 [26]): Active
Activity (BV-2 [27]): Active
Activity [28]: Non-Toxic
Activity [29]: Non-Toxic
Activity [30]: Non-Toxic
Activity [31]: Non-Toxic
Activity (Mus musculus [32]): Active
Activity (Mus musculus [33]): Active
Activity (Mus musculus [34]): Active
Activity (Mus musculus [35]): Active
Activity (Mus musculus [36]): Active
Activity (Mus musculus [37]): Active
